Experimental data: patent publication US20240368123A1, “AROMATIC RING-CONTAINING BIOLOGICAL ANTAGONIST, AND PREPARATION METHOD THEREFOR AND USE THEREOF” (SHANGHAI HANSOH BIOMEDICAL CO., LTD., priority 2021, published 2024)
Blank lines part the entries; values can stand above or below the compound they belong to.

Experiments:
AT1 receptors = biological target: T1, AT1 receptors (Homo sapiens, UniProt P30556); assay: Effect on calcium current in cells stably expressing AT1 receptors (FLIPR, antagonist mode); type: cell-based; settings: HEK293-AT1 cells, Fluo-8 AM, FLIPR Tetra; read-out: IC50 values of compounds on calcium current in cells stably expressing AT1 receptors
T1 construct: host or cells: HEK293
T1 sequence (P30556 1-359): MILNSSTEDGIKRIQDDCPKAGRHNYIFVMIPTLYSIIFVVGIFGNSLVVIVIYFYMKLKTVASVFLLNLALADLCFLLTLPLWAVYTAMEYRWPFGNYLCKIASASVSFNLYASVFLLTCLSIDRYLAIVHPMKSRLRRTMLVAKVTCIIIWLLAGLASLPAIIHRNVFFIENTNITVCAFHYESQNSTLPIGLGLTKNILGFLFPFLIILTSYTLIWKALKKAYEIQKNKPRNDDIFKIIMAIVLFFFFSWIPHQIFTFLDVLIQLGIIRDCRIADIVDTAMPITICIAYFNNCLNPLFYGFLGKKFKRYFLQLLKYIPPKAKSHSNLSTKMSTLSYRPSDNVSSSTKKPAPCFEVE
Source text: Test Example 1. Determination of the Effect of the Compounds of the Present Invention on Calcium Current in Cells Stably Expressing AT1 Receptors
Antagonistic effect of test compounds on HEK293-AT1 cell activity
• DMEM, high glucose (Gibco: 12100); • Fetal bovine serum (Biosera: FB-1058/500); • P/S (Biosera: XC-A4122); • 5× Matrigel (Corning: 354230); • HBSS (Sigma: H1387); • HEPES (Invitrogen: 15630080); • Fluo-8 AM (AAT Bioquest: 21080); • Probenecid (Sigma: P8761); • Pluronic F-127 (Sigma: P2443-250G); • Angiotensin III TFA (MCE: HY-113035A); • Irbesartan (MCE: HY—B0202); • 1000× Fluo-8 AM (2 mM): Fluo-8 AM was dissolved in DMSO, the mixture was shaken for 1-2 min, sub-packaged and stored at −20° C.; • Complete culture medium: DMEM+10% FBS+1×P/S; • Cell seeding medium: DMEM+10% FBS+1×PS; • Experimental buffer 1: 1×HBSS+20 mM HEPES+1 mM Probenecid+0.025% Pluronic F-127; • Experimental buffer 2: 1×HBSS+20 mM HEPES+0.075% Pluronic F-127; • 1× Matrigel: 5× Matrigel was diluted with DMEM; • Cell line: HDB HEK293-AT1.
• 1) HEK293-AT1 cell line was cultured in complete culture medium at 37° C., 5% CO2 to 70%-90% confluence. • 2) the 384-well cell plate was coated with 1× Matrigel with 5 μL/well at room temperature for 10 to 30 min. • 3) the cells were digested and resuspended in cell seeding medium, inoculation was performed at 8,000 cells/well/20 μL in a 384-well cell culture plate, and the cells were cultured at 37° C., 5% CO2 for 24 h. • 4) the cell culture plate was taken out of the CO2 incubator and equilibrated at room temperature for 10 min. • 5) 1000× Fluo-8 AM was taken and diluted to 1× Fluo-8 AM with experimental buffer 1 that has been equilibrated to room temperature, with a concentration of 2 μM. • 6) the culture medium was removed from the cell culture plate, 20 μL of 1× Fluo-8 AM was added to each well, the mixture was centrifuged at 300 rpm for 60 seconds at room temperature, and incubated at room temperature in the dark for 1 h. • 7) positive control compound and test compound working solution (3×) were formulated: • (1) instrument Bravo was used to dilute the compound to 11 concentration points on the 384-well Echo compound plate (LABCYTE: LP-0200); • (2) instrument ECHO was used to transfer 90 nL of compound per well (compound storage concentration, such as the highest concentration point 10 mM) to the 384-well compound plate (PE: 6008590); • (3) Multidrop Combi was used to add 30 μL of experimental buffer 2 to the 384-well compound plate (PE: 6008590), the positive control compound and test compound were diluted to 30 μM (3×), and placed at room temperature until use. • 8) FLIPR Tetra was used to add 10 μL of diluted 3× compound into the experimental well of the corresponding 384-well cell plate, the compound and cells were incubated for 10 min at room temperature, then 10 μL of diluted 4× agonist was added, and the data was read and collected at the same time.
FLIPR Tetra was used to read and collect the fluorescence signal value (RFU). The maximum RFU value was used to calculate the percent activation data based on the readings of the Low control (DMSO control) and High control (100 nM positive compound) experimental groups {% activation rate=(RFUsample−RFUlow control)/(RFUhigh control−RFUlow control)×100}. The concentration of the test compound was 11 concentrations after diluting the reaction system 3 times, ranging from 10 uM to 0.17 nM.

[1] = Rat pharmacokinetic evaluation test, oral administration; type: in vivo; settings: male, SD rats, p.o. 5 mg/kg, plasma
Procedure: SD rats were used as test animals to study the pharmacokinetic behavior of the compounds of the present invention in the rat body (plasma) after oral administration at a dose of 5 mg/kg.
3 SD rats/group, male, from Shanghai Jiesijie Experimental Animal Co., Ltd., animal production license number (SCXK (Shanghai) 2013-0006 N0.311620400001794).
• 0.5% CMC-Na (1% Tween80) was dissolved with ultrasound, and formulated into a clear solution or homogeneous suspension.
• p.o. respectively after the rats were fasted overnight; • the p.o. dose was 5 mg/kg and the administration volume was 10 mL/kg.
After oral administration of rats, 0.2 mL of blood was collected from the jugular vein at 0.25 h, 0.5 h, 1.0 h, 2.0 h, and 4.0 h, placed in an EDTA-2K test tube, centrifuged at 6000 rpm for 6 min at 4° C. to separate plasma which was stored at −80° C.; the rats can eat 4 h after administration.
• 1) 160 μL of acetonitrile was added to 40 μL of plasma sample for precipitation, mixed and centrifuged at 3500×g for 5 to 20 min. • 2) the treated supernatant solution was taken and subjected to LC/MS/MS to analyze the concentrations of the test compounds. LC/MS/MS analysis instrument: AB Sciex API 4000 Qtrap.
• Liquid phase conditions: Shimadzu LC-20AD pump • chromatographic column: AgilentZORBAX XDB-C18 (50×2.1 mm, 3.5 μm) mobile phase: liquid A was 0.1% aqueous formic acid solution, liquid B was acetonitrile • flow rate: 0.4 mL/min • Elution time: 0-4.0 min, the eluent was as follows:
The main pharmacokinetic parameters were calculated using WinNonlin 6.1.

[2] = system: spontaneously hypertensive rat (SHR) model; assay: Pharmacodynamic evaluation on blood pressure in spontaneously hypertensive rats; type: in vivo; settings: P.O, 30 mpk, 1-8 h after administration, P<0.05
Source text: This experiment used a spontaneously hypertensive rat (SHR) model to evaluate the pharmacodynamic effect of the test compounds on the blood pressure and heart rate of the model.
Kent Scientific CODA non-invasive blood pressure system.
Spontaneously hypertensive rats (SHR) were provided by Beijing Vital River Laboratory Animal Technology Co., Ltd., male, 150-200 g, 13-15 weeks old, 50 rats.
After animals arrived at the experimental facility, the animals were adapted to the animal facility for 5-7 days. 4.2 After the adaptation period, the animals were adapted to the tail oversleeve restrain for 3 days, and the tail oversleeve restrain was performed twice a day. After the last restrain adaptation, the basal blood pressure was measured, and the animals were randomly divided into groups according to the basal blood pressure. There was no significant difference between the average systolic blood pressure of animals in each group, and the number of animals in each group met the requirements of statistical testing and pharmacodynamic guidelines. 4.3 On the second day after grouping, the animals were administered according to experimental design and grouping (P.O, 5 mL/kg), and the systolic blood pressure (SBP), diastolic blood pressure (DBP), mean arterial pressure (MAP) and heart rate (HR) of the animals were measured before administration and at 1, 2, 4, 6, 8 and 24 h after administration using tail oversleeve method.
Statistical differences between groups were analyzed by Two-way ANOVA test. Among them, P<0.05 indicated a significant difference, and P<0.01 indicated an extremely significant difference.

[3] = Liver microsomal metabolism stability test, rat; type: in vitro ADME; settings: rat liver microsomes, 60 min
Procedure: (§1) The purpose of this experiment was to detect the stability of the example compounds in liver microsomes of rats, dogs and humans.
(§2) • Formulation of working solution of compounds: compound stock solution was added to phosphate buffer to a final concentration of 20 μM.
(§3) Dilution was performed with 100 mM phosphate buffer to a final concentration of 0.625 mg/mL.
(§4) NADPH (reduced nicotinamide adenine dinucleotide phosphate) and UDPGA (uridine diphosphate glucuronic acid) were weighed, 100 mM phosphate buffer was added, and the final concentration was 20 mM.
(§5) 1 mg of Alamethicin was weighed, and 200 μL of DMSO was added to formulate a 5 mg/mL solution. Then dilution was performed with phosphate buffer to a final concentration of 50 μg/mL.
(§6) Stop solution: the stop solution contains 100 ng/mL labetalol hydrochloride and 400 ng/mL tolbutamide and cold acetonitrile as internal standard.
(§7) 400 μL of formulated liver microsomes, 25 μL of compound working solution and 25 μL of Alamethicin were added in sequence to the 96-well plate, and pre-incubated at 37° C. for 10 min. Then 50 μL of formulated NADPH/UDPGA was added to start the reaction and the mixture was incubated at 37° C. The total volume of the reaction system was 500 μL. The final contents of each component are as follows:
(§8) • Instrument: Shimadzu LC-30 AD; • Chromatographic column: XBridge® C18 (50*4.6 mm, 5 μm particle size); • Mobile phase: A: 0.1% formic acid solution, B: methanol Wash gradient: 0.2-1.6 min 5% A to 95% A, 3.0-3.1 min 95% A to 5% A Run time: 4.0 min.
(§9) • Instrument: API5500 liquid chromatography mass spectrometer, AB Sciex; • Ion source: electrospray ionization source (ESI); • Drying gas: N2, temperature 500° C.; • Electrospray voltage: 5000 V; • Detection mode: positive ion detection; • Scanning mode: reaction monitoring (MRM) mode.

[4] = Liver microsomal metabolism stability test, dog; type: in vitro ADME; settings: dog liver microsomes, 60 min
Procedure: as §1, §2, §3, §4, §5, §6, §7, §8, §9

[5] = Liver microsomal metabolism stability test, human; type: in vitro ADME; settings: human liver microsomes, 60 min
Procedure: as §1, §2, §3, §4, §5, §6, §7, §8, §9

IC50 (AT1 receptors): 10 nM
Compound: CCCCC1=NC2(CCCC2)C(=O)N1Cc1ccc(-c2ccccc2S(=O)(=O)Nc2noc(C)c2C)c(COC2CC2)c1 [Example 13, 4′-((2-butyl-4-oxo-1,3-diazaspiro[4.4]non-1-en-3-yl)methyl)-2′-(cyclopropoxymethyl)-N-(4,5-dimethylisoxazol-3-yl)-[1,1′-biphenyl]-2-sulfonamide]

IC50 (AT1 receptors): 6.9 nM | AUC(0-inf) [1]: 11300 ng·h/mL | Cmax [1]: 2320 ng/mL | Tmax [1]: 0.5 h | MRT inf ([1]; read-out: MRT0-∞): 5.3 h
Compound: CCCCC1=NC2(CCCC2)C(=O)N1Cc1ccc(-c2ccccc2S(=O)(=O)Nc2noc(C)c2C)c(COCC2CC2)c1 [Example 14, 4′-((2-butyl-4-oxo-1,3-diazaspiro[4.4]non-1-en-3-yl)methyl)-2′-((cyclopropylmethoxy)methyl)-N-(4,5-dimethylisoxazol-3-yl)-[1,1′-biphenyl]-2-sulfonamide]

Compound: [2H]C([2H])(c1ccc(-c2ccccc2S(=O)(=O)Nc2noc(C)c2Cl)c(COCC)c1)N1C(=O)C2(CCCC2)N=C1CCCC [Example 44, 4′-((2-butyl-4-oxo-1,3-diazaspiro[4.4]non-1-en-3-yl)methyl-d2)-N-(4-chloro-5-methylisoxazol-3-yl)-2′-(ethoxymethyl)-[1,1′-biphenyl]-2-sulfonamide]
blood pressure (systolic blood pressure, diastolic blood pressure, mean arterial pressure) compared with the vehicle group [2]: significantly reduced blood pressure | Remaining rate [3]: 29.4% | Remaining rate [4]: 24.6% | Remaining rate [5]: 33.0%

IC50 (AT1 receptors): 8.6 nM
Compound: CCCCC1=NC2(CCCC2)C(=O)N1Cc1ccc(-c2ccccc2S(=O)(=O)Nc2noc(C)c2Cl)c(COC2CC2)c1 [Example 52, 4′-((2-butyl-4-oxo-1,3-diazaspiro[4.4]non-1-en-3-yl)methyl)-N-(4-chloro-5-methylisoxazol-3-yl)-2′-(cyclopropoxymethyl)-[1,1′-biphenyl]-2-sulfonamide]

IC50 (AT1 receptors): 9.1 nM
Compound: CCCCC1=NC2(CCCC2)C(=O)N1Cc1ccc(-c2ccccc2S(=O)(=O)Nc2noc(C)c2Cl)c(COC)c1 [Example 53, 4′-((2-butyl-4-oxo-1,3-diazaspiro[4.4]non-1-en-3-yl)methyl)-N-(4-chloro-5-methylisoxazol-3-yl)-2′-(methoxymethyl)-[1,1′-biphenyl]-2-sulfonamide]

IC50 (AT1 receptors): 3.7 nM
Compound: CCCCC1=NC2(CCCC2)C(=O)N1Cc1ccc(-c2ccccc2S(=O)(=O)Nc2noc(C)c2Cl)c(OCCC)c1 [Example 55, 4′-((2-butyl-4-oxo-1,3-diazaspiro[4.4]non-1-en-3-yl)methyl)-N-(4-chloro-5-methylisoxazol-3-yl)-2′-propoxy-[1,1′-biphenyl]-2-sulfonamide]

IC50 (AT1 receptors): 6.1 nM
Compound: CCCCC1=NC2(CCCC2)C(=O)N1Cc1ccc(-c2ccccc2S(=O)(=O)Nc2noc(C)c2Cl)c(COC(C)C)c1 [Example 72, 4′-((2-butyl-4-oxo-1,3-diazaspiro[4.4]non-1-en-3-yl)methyl)-N-(4-chloro-5-methylisoxazol-3-yl)-2′-(isopropoxymethyl)-[1,1′-biphenyl]-2-sulfonamide]

IC50 (AT1 receptors): 5.2 nM
Compound: CCCCC1=NC2(CCCC2)C(=O)N1Cc1ccc(-c2ccccc2S(=O)(=O)Nc2noc(C)c2Cl)c(COCC2CC2)c1 [Example 85, 4′-((2-butyl-4-oxo-1,3-diazospiro[4.4]non-1-en-3-yl)methyl)-N-(4-chloro-5-methylisoxazol-3-yl)-2′-((cyclopropylmethoxy)methyl)-[1,1′-biphenyl]-2-sulfonamide]
